From patent publication US20060079512A1, “Dibenzodiazepinone analogues, processes for their production and their use as pharmaceuticals” (Ecopia BioSciences, Inc., priority 2003, published 2006)

Experiments:
Type in all cases: cell-based
[1] = system: PC-3 (prostate adenocarcinoma); test: In vitro cytotoxic activity (GI50), method (b), propidium iodide; details: 96 hrs
Method: (§1) Row H was filled wih medium only (150 μL, negative control-medium).

SF268 (CNS) = test: as above; details: Homo sapiens, SF-268, 96 hrs
Method: as §1

[2] = system: HT-29 (colorectal carcinoma); test: as above; details: Homo sapiens, 96 hrs
Method: as §1

[3] = system: MDA-MB-231 (mammary gland adenocarcinoma); test: as above; details: Homo sapiens, 96 hrs
Method: as §1

[4] = system: HT-29, SF-268, PC-3, MDA-MB-231; test: Average GI50 over the four cell lines, method (b); details: for GI50: values > 30 not considered; for anticancer activity compared with Compound 1: four cell lines
Method: as §1

GI50 [4] [µM] | SMILES | GI50 [1] [µM] | GI50 (SF268 (CNS)) [µM] | GI50 [2] [µM] | GI50 [3] [µM] | anticancer activity compared with Compound 1 [4]
1.53 | CCN1c2c(O)cccc2C(=O)N(C/C=C(\C)CC/C=C(\C)CCC=C(C)C)c2cc(O)cc(O)c21 [Compound 14, 10-farnesyl-4,6,8-trihydroxy-5-ethyl-5,10-dihydro-dibenzo[b,e][1,4]diazepin-11-one] | 1.15 | 0.76 | 2.04 | 2.16 | –
16 | CC(C)=CCCC1(C)OC1CC/C(C)=C/CN1C(=O)c2cccc(O)c2Nc2c(O)cc(O)cc21 (stereo not drawn) [Compound 17, 10-(3,7,11-trimethyl-6,7-epoxydodeca-2,10-dienyl)-4,6,8-trihydroxy-5,10-dihydro-dibenzo[b,e][1,4]diazepin-11-one] | 18.7 | 13.4 | > 30 | > 30 | –
– | C/C(=C\CN1C(=O)c2cccc(O)c2Nc2c(O)cc(O)cc21)CC/C=C(\C)CCC1OC1(C)C (stereo not drawn) [Compound 18] | > 30 | 7.45 | > 30 | > 30 | –
1.74 | CCCN1c2c(O)cccc2C(=O)N(C/C=C(\C)CC/C=C(\C)CCC=C(C)C)c2cc(O)cc(O)c21 [Compound 63, 10-farnesyl-4,6,8-trihydroxy-5-n-propyl-5,10-dihydro-dibenzo[b,e][1,4]diazepin-11-one] | 1.25 | 0.89 | 2.57 | 2.27 | better anticancer activity than Compound 1
1.4 | CCCCN1c2c(O)cccc2C(=O)N(C/C=C(\C)CC/C=C(\C)CCC=C(C)C)c2cc(O)cc(O)c21 [Compound 64, 10-farnesyl-4,6,8-trihydroxy-5-n-butyl-5,10-dihydro-dibenzo[b,e][1,4]diazepin-11-one] | 1.14 | 0.56 | 2.5 | 1.39 | better anticancer activity than Compound 1
1.55 | CCCCCCN1c2c(O)cccc2C(=O)N(C/C=C(\C)CC/C=C(\C)CCC=C(C)C)c2cc(O)cc(O)c21 [Compound 67, 10-farnesyl-4,6,8-trihydroxy-5-n-hexyl-5,10-dihydro-dibenzo[b,e][1,4]diazepin-11-one] | 1.33 | 0.53 | 2.44 | 1.92 | better anticancer activity than Compound 1
9.98 | CCC(C)N1c2c(O)cccc2C(=O)N(C/C=C(\C)CC/C=C(\C)CCC=C(C)C)c2cc(O)cc(O)c21 (stereo not drawn) [Compound 77, 10-Farnesyl-4,6,8-trihydroxy-5-sec-butyl-5,10-dihydro-dibenzo[b,e][1,4]diazepin-11-one] | 17.1 | 3.31 | 13.9 | 5.62 | –
0.21 | CC(C)CCCC(C)CCCC(C)CCN1C(=O)c2cccc(O)c2N(C)c2c(O)cc(O)cc21 (stereo not drawn) [Compound 78, 10-(3,7,11-trimethyldodecyl)-4,6,8-trihydroxy-5-methyl-5,10-dihydro-dibenzo[b,e][1,4]diazepin-11-one] | 0.23 | 0.07 | 0.29 | 0.24 | better anticancer activity than Compound 1
1.14 | COC(C)(CCC=C(C)C)CCC/C(C)=C/CN1C(=O)c2cccc(O)c2N(C)c2c(O)cc(O)cc21 (stereo not drawn) [Compound 80, 10-(7-methoxy-3,7,11-trimethyldodeca-2,10-dienyl)-4,6,8-trihydroxy-5-methyl-5,10-dihydro-dibenzo[b,e][1,4]diazepin-11-one] | 1.8 | 0.33 | 1.43 | 1.02 | better anticancer activity than Compound 1
13.2 | COC(C)(C)CCC/C(C)=C/CC/C(C)=C/CN1C(=O)c2cccc(O)c2Nc2c(O)cc(O)cc21 [Compound 82, 10-(11-methoxy-3,7,11-trimethyl-2,6-dodecadienyl)-4,6,8-trihydroxy-5,10-dihydro-dibenzo[b,e][1,4]diazepin-11-one] | 13.4 | 4.75 | 23.6 | 11 | –
12.3 | COC(C)(CCC=C(C)C)CCC/C(C)=C/CN1C(=O)c2cccc(O)c2Nc2c(O)cc(O)cc21 (stereo not drawn) [Compound 83] | 13.2 | 9.74 | 19.6 | 6.71 | –
16.2 | COC(C)(C)CCCC(C)(CCC/C(C)=C/CN1C(=O)c2cccc(O)c2Nc2c(O)cc(O)cc21)OC (stereo not drawn) [Compound 84, 10-(7,11-dimethoxy-3,7,11-trimethyl-2-dodecenyl)-4,6,8-trihydroxy-5,10-dihydro-dibenzo[b,e][1,4]diazepin-11-one] | 16.4 | 3.49 | 21.5 | 23.5 | –
1.72 | CCN1c2c(O)cccc2C(=O)N(C/C=C(\C)CC/C=C(\C)CCCC(C)(C)OC)c2cc(O)cc(O)c21 [Compound 85, 10-(11-methoxy-3,7,11-trimethyl-2,6-dodecadienyl)-4,6,8-trihydroxy-5-ethyl-5,10-dihydro-dibenzo[b,e][1,4]diazepin-11-one] | 1.08 | 1.73 | 1.89 | 2.19 | better anticancer activity than Compound 1
1.63 | CCN1c2c(O)cccc2C(=O)N(CC=C(C)CCCC(C)(CCCC(C)(C)OC)OC)c2cc(O)cc(O)c21 (stereo not drawn) [Compound 87, 10-(7,11-dimethoxy-3,7,11-trimethyl-2-dodecenyl)-4,6,8-trihydroxy-5-ethyl-5,10-dihydro-dibenzo[b,e][1,4]diazepin-11-one] | 1.39 | 0.91 | 1.83 | 2.4 | better anticancer activity than Compound 1
17.5 | CC(C)=CCCC(C)(O)CCC/C(C)=C/CN1C(=O)c2cccc(O)c2Nc2c(O)cc(O)cc21 (stereo not drawn) [Compound 89, 10-(7-hydroxy-3,7,11-trimethyldodeca-2,10-dienyl)-4,6,8-trihydroxy-5,10-dihydro-dibenzo[b,e][1,4]diazepin-11-one] | 13.5 | 13.7 | > 30 | 25.3 | –
13.7 | CC(=O)NC(C)(CCC=C(C)C)CCC/C(C)=C/CN1C(=O)c2cccc(O)c2Nc2c(O)cc(O)cc21 (stereo not drawn) [Compound 92, 10-(7-acetamido-3,7,11-trimethyldodeca-2,10-dienyl)-4,6,8-trihydroxy-5,10-dihydro-dibenzo[b,e][1,4]diazepin-11-one] | 16.6 | 13.5 | > 30 | 11.1 | –
1.82 | CC(C)=CCC/C(C)=C/CC/C(C)=C/CN1C(=O)c2cccc(O)c2Nc2c1cc(O)c(Br)c2O [Compound 97, 10-(farnesyl)-7-bromo-4,6,8-trihydroxy-5,10-dihydro-dibenzo[b,e][1,4]diazepin-11-one] | 1.19 | 2.04 | 2.02 | 2.02 | generally more active than Compound 1
0.54 | [2H]C([2H])([2H])N1c2c(O)cccc2C(=O)N(C/C=C(\C)CC/C=C(\C)CCC=C(C)C)c2cc(O)cc(O)c21 [Compound 98, 10-Farnesyl-4,6,8-trihydroxy-5-(trideuteriomethyl)-5,10-dihydro-dibenzo[b,e][1,4]diazepin-11-one] | 0.82 | 0.16 | 0.69 | 0.51 | better anticancer activity than Compound 1
0.49 | C/C(=C\CN1C(=O)c2cccc(O)c2N(C)c2c(O)cc(O)cc21)CCCC(C)CCCC(C)C (stereo not drawn) [Compound 100, 10-(3,7,11-trimethyl-2-dodecenyl)-4,6,8-trihydroxy-5-methyl-5,10-dihydro-dibenzo[b,e][1,4]diazepin-11-one] | 0.65 | 0.23 | 0.69 | 0.37 | better anticancer activity than Compound 1
8.47 | CCOC(=O)CN1c2c(O)cccc2C(=O)N(C/C=C(\C)CC/C=C(\C)CCC=C(C)C)c2cc(O)cc(O)c21 [Compound 101, (10-Farnesyl-4,6,8-trihydroxy-5,10-dihydrodibenzo[b,e][1,4]diazepin-11-on-5-yl)acetic acid ethyl ester] | 8.73 | 3.27 | 18.2 | 3.67 | –
28.2 | CC(C)=CCC/C(C)=C/CC/C(C)=C/CN1C(=O)c2cccc(OC(=O)c3ccccc3)c2Nc2c(OC(=O)c3ccccc3)cc(OC(=O)c3ccccc3)cc21 [Compound 105, 4,6,8-tribenzoyloxy-10-farnesyl-5,10-dihydro-dibenzo[b,e][1,4] diazepin-11-one] | > 30 | 28.2 | > 30 | > 30 | –
